The molecules below were run against KRasG12C (M1-K169, biotinylated on the N-terminus) (Homo sapiens (Human), UniProt P01116, G12C) (assay: Covalent competition assay (scintillation proximity assay, competition with radiolabeled covalent probe Compound B)). Conditions: in vitro KRASG12C activity; 10 nM KRasG12C:GDP, 25 nM radio-ligand and 475 nM unlabelled ligand, incubated 2 hours; read-out: Covalent Competition Assay IC50.
Assay type: binding
Procedure, shortened: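 Biotinylated KRasG12C (M1-K169):GDP incubated 2 h with agitation with serially diluted compounds premixed with a fixed concentration of radiolabeled covalent probe; scintillation proximity read-out of competition for covalent modification. Buffer 20 mM Tris-HCl pH 7.5, 150 mM NaCl, 0.1 mM MgCl2, 0.01% Tween-20. IC50 from 4-parameter fit.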

| Compound | IC50 [nM] |
| --- | --- |
| C=CC(=O)N1CC2(CC(n3nc(-c4ccn5ccnc5c4)c(-c4c(Cl)c(C)cc5[nH]ncc45)c3C)C2)C1 (single isomer, unassigned) [Example 33a] | 253 |
| C=CC(=O)N1CC2(CC(n3nc(-c4cscn4)c(-c4c(Cl)c(C)cc5[nH]ncc45)c3C)C2)C1 (single isomer, unassigned) [Example 51a, 1-(6-(4-(5-chloro-6-methyl-1H-indazol-4-yl)-5-methyl-3-(thiazol-4-yl)-1H-pyrazol-1-yl)-2-azaspiro[3.3]heptan-2-yl)prop-2-en-1-one] | 465 |
| C=CC(=O)N1CC2(CC(n3nc(-c4ccc5nnccc5c4)c(-c4c(Cl)c(C)cc5[nH]ncc45)c3C)C2)C1 (single isomer, unassigned) [Example 71a, 1-(6-(4-(5-chloro-6-methyl-1H-indazol-4-yl)-3-(cinnolin-6-yl)-5-methyl-1H-pyrazol-1-yl)-2-azaspiro[3.3]heptan-2-yl)prop-2-en-1-one] | 101 |
| C=CC(=O)N1CC2(CC(n3nc(-c4ccc(COCCOC)cc4)c(-c4c(Cl)c(C)cc5[nH]ncc45)c3C)C2)C1 (single isomer, unassigned) [Example 39a] | 32 |
| C=CC(=O)N1CC2(CC(n3nc(-c4ccc5c(cnn5CCO)c4)c(-c4c(Cl)c(C)cc5[nH]ncc45)c3C)C2)C1 (single isomer, unassigned) [Example 83a, 1-(6-(4-(5-chloro-6-methyl-1H-indazol-4-yl)-3-(1-(2-hydroxyethyl)-1H-indazol-5-yl)-5-methyl-1H-pyrazol-1-yl)-2-azaspiro[3.3]heptan-2-yl)prop-2-en-1-one] | 18 |
| C=CC(=O)N1CC2(CC(n3nc(-c4ccc(C(=O)N(C)CC(C)(C)O)cc4)c(-c4c(Cl)c(C)cc5[nH]ncc45)c3C)C2)C1 (single isomer, unassigned) [Example 67b] | 12100 |
| C=CC(=O)N1CC2(CC(n3nc(-c4ccc(-n5ccc(N)n5)nc4)c(-c4c(Cl)c(C)cc5[nH]ncc45)c3C)C2)C1 [Example 53, 1-(6-(3-(6-(3-amino-1H-pyrazol-1-yl)pyridin-3-yl)-4-(5-chloro-6-methyl-1H-indazol-4-yl)-5-methyl-1H-pyrazol-1-yl)-2-azaspiro[3.3]heptan-2-yl)prop-2-en-1-one] | 320 |
| C=CC(=O)N1CC2(CC(n3nc(-c4cnc5c(ccn5C)c4)c(-c4c(Cl)c(C)cc5[nH]ncc45)c3C)C2)C1 (single isomer, unassigned) [Example 8b] | 2900 |
| C=CC(=O)N1CC2(CC(n3nc(-c4ccc(OCCOC)cc4F)c(-c4c(Cl)c(C)cc5[nH]ncc45)c3C)C2)C1 (single isomer, unassigned) [Example 60a, 1-(6-{(4M)-4-(5-Chloro-6-methyl-1H-indazol-4-yl)-3-[2-fluoro-4-(2-methoxyethoxy)phenyl]-5-methyl-1H-pryazol-1-yl}-2-azaspiro[3.3]heptan-2-yl)prop2-en-1-one] | 51 |
| C=CC(=O)N1CC2(CC(n3nc(-c4cccnc4)c(-c4c(Cl)c(C)cc5[nH]ncc45)c3C)C2)C1 (single isomer, unassigned) [Example 27b] | 19900 |
| C=CC(=O)N1CC2(CC(n3nc(-c4ccc(C(=O)NCCOC)c(F)c4)c(-c4c(Cl)c(C)cc5[nH]ncc45)c3C)C2)C1 (single isomer, unassigned) [Example 63b] | 33800 |
| C=CC(=O)N1CC2(CC(n3nc(-c4ccc(N5CCN(C)C5=O)cc4)c(-c4c(Cl)c(C)cc5[nH]ncc45)c3C)C2)C1 (single isomer, unassigned) [Example 13b] | 14800 |
| C=CC(=O)N1CC2(CC(n3nc(-c4ccc5c(c4)CC(=O)N5C)c(-c4c(Cl)c(C)cc5[nH]ncc45)c3C)C2)C1 (single isomer, unassigned) [Example 24a] | 71 |
| C=CC(=O)N1CC2(CC(n3nc(-c4ccc(CO)cc4)c(-c4c(Cl)c(C)cc5[nH]ncc45)c3C)C2)C1 (single isomer, unassigned) [Example 47b, 1-(6-(4-(5-chloro-6-methyl-1H-indazol-4-yl)-3-(4-(hydroxymethyl)phenyl)-5-methyl-1H-pyrazol-1-yl)-2-azaspiro[3.3]heptan-2-yl)prop-2-en-1-one] | 23400 |
| C=CC(=O)N1CC2(CC(n3nc(-c4ccc5nn(CCN(C)C)cc5c4)c(-c4c(Cl)c(C)cc5[nH]ncc45)c3C)C2)C1 (single isomer, unassigned) [Example 16b] | 23400 |
| C=CC(=O)N1CC2(CC(n3nc(-c4ccc5nn(CCN6CC[C@H](F)C6)cc5c4)c(-c4c(Cl)c(C)cc5[nH]ncc45)c3C)C2)C1 (single isomer, unassigned) [Example 80a] | 1300 |
| C=CC(=O)N1CC2(CC(n3nc(-c4ccc(N)nc4)c(-c4c(Cl)c(C)cc5[nH]ncc45)c3C)C2)C1 [Example 79a, 1-(6-(3-(6-aminopyridin-3-yl)-4-(5-chloro-6-methyl-1H-indazol-4-yl)-5-methyl-1H-pyrazol-1-yl)-2-azaspiro[3.3]heptan-2-yl)prop-2-en-1-one] | 92 |
| C=CC(=O)N1CC2(CC(n3nc(-c4ccc(C(=O)N(C)CC(C)(C)O)cc4)c(-c4c(Cl)c(C)cc5[nH]ncc45)c3C)C2)C1 (single isomer, unassigned) [Example 67a] | 202 |
| C=CC(=O)N1CC2(CC(n3nc(-c4ccc5c(c4)N(C)CC(=O)O5)c(-c4c(Cl)c(C)cc5[nH]ncc45)c3C)C2)C1 (single isomer, unassigned) [Example 32a] | 871 |
| C=CC(=O)N1CC2(CC(n3nc(-c4cc5ccncc5[nH]4)c(-c4c(Cl)c(C)cc5[nH]ncc45)c3C)C2)C1 (single isomer, unassigned) [Example 59b, 1-(6-(4-(5-chloro-6-methyl-1H-indazol-4-yl)-5-methyl-3-(1H-pyrrolo[2,3-c]pyridin-2-yl)-1H-pyrazol-1-yl)-2-azaspiro[3.3]heptan-2-yl)prop-2-en-1-one] | > 50000 |
| C=CC(=O)N1CC2(CC(n3nc(-c4ccc(C(=O)NCCOC)cc4)c(-c4c(Cl)c(C)cc5[nH]ncc45)c3C)C2)C1 (single isomer, unassigned) [Example 62a, 4-(1-(2-acryloyl-2-azaspiro[3.3]heptan-6-yl)-4-(5-chloro-6-methyl-1H-indazol-4-yl)-5-methyl-1H-pyrazol-3-yl)-N-(2-methoxyethyl)benzamide] | 45 |
| C=CC(=O)N1CC2(CC(n3nc(-c4ccc5nn(CCN6CC(OC)C6)cc5c4)c(-c4c(Cl)c(C)cc5[nH]ncc45)c3C)C2)C1 (single isomer, unassigned) [Example 82a] | 12 |
| C=CC(=O)N1CC2(CC(n3nc(-c4cnc5c(cnn5C)c4)c(-c4c(Cl)c(C)cc5[nH]ncc45)c3C)C2)C1 (single isomer, unassigned) [Example 37b] | > 50000 |
| C=CC(=O)N1CC2(CC(n3nc(-c4ccnc(C)c4)c(-c4c(Cl)ccc5[nH]ncc45)c3C)C2)C1 (single isomer, unassigned) [Example 28b] | > 50000 |
| C=CC(=O)N1CC2(CC(n3nc(-c4ccncc4C)c(-c4c(Cl)c(C)cc5[nH]ncc45)c3C)C2)C1 (single isomer, unassigned) [Example 49a, 1-(6-(4-(5-chloro-6-methyl-1H-indazol-4-yl)-5-methyl-3-(3-methylpyridin-4-yl)-1H-pyrazol-1-yl)-2-azaspiro[3.3]heptan-2-yl)prop-2-en-1-one] | 227 |

— patent publication US11702409B2, “Pyrazolyl derivatives useful as anti-cancer agents” (NOVARTIS AG, priority 2019, dated 2023)
